Experimental data published in patent publication US7618796B2, “Peptide-forming enzyme gene, peptide-forming enzyme, and peptide producing method” (Ajinomoto Co., Inc., priority 2001, dated 2009).
Read-outs that look alike come from different tables or passages of the source. Residues, ends and D or L forms follow the SMILES beside them.

How the values were obtained:
[1] = tested on: His-Tag purified peptide-forming enzyme of Corynebacterium glutamicum strain ATCC 13286; assay: Study of substrate specificity using His-Tag purified enzyme; assay type: biochemical; details: 25° C.; for quantity of L-alanyl dipeptide produced from L-alanine methyl ester and test amino acid: 100 mM L-alanine methyl ester hydrochloride, 150 mM test amino acid; for quantity of L-alanyl dipeptide produced from L-alanine methyl ester and test amino acid / quantity of dipeptide produced from test amino acid methyl ester and L-glutamine: enzyme 0.05 U/ml, pH 9.0, 3 hours; for quantity of dipeptide produced from test amino acid methyl ester and L-glutamine / production of peptide of the corresponding amino acid and L-glutamine (not quantified): 100 mM test amino acid methyl ester, 150 mM L-glutamine; for production of peptide of the corresponding amino acid and L-glutamine (not quantified): 3 hours, no standard preparation
From the text: The synthesis of peptides other than the L-alanyl-L-glutamine by the acquired peptide-forming enzyme was studied using His-Tag purified enzyme. […]

[2] = target: proline iminopeptidase of Bacillus coagulans strain EK01 (Heyndrickxia coagulans, UniProt P46541); assay: Effect of inhibitors on L-alanyl-L-glutamine synthesis; assay type: biochemical; details: 1 mM inhibitor, 30 minutes, 30° C.
[3] = tested on: proline iminopeptidase of Pseudomonas putida strain FERM BP-8123; assay: as above; assay type: biochemical; details: 1 mM inhibitor, 30 minutes, 30° C.
[4] = tested on: proline iminopeptidase of Pseudomonas putida strain ATCC 12633; assay: as above; assay type: biochemical; details: 1 mM inhibitor, 30 minutes, 30° C.
Method: The effects of inhibitors on acquired proline iminopeptidase were investigated. The enzyme reaction was carried out for 30 minutes at 30° C. with a reaction solution consisting of 0.1 M borate buffer (pH 9.0), 10 mM EDTA, 100 mM L-alanine methyl ester hydrochloride, 150 mM L-glutamine and 1 mM inhibitor, followed by measurement of L-alanyl-L-glutamine synthesis. […] The activity was not affected by any of the inhibitors investigated for Corynebacterium glutamicum strain ATCC 13286.

[5] = Enzyme titer: L-alanine amide decomposition activity; assay type: biochemical; details: Tris-HCl pH 9.0, 60 minutes, 30° C.
Method: The specific activity of the purified enzyme was 9.841 U/mg, and the specific activity of the purified peptide-forming enzyme was increased about 246-fold as a result of going through these purification steps. In addition, as a result of applying the molecular weight of the purified enzyme standard to SDS polyacrylamide electrophoresis, a uniform band was detected at the position calculated to represent a molecular weight of 42,000 to 46,000. Measurement of enzyme titer was carried out as described below. 200 μM of Tris-HCl buffer (pH 9.0), 50 μM of L-alanine amide and a suitable amount of enzyme liquid were added and mixed to a final volume 1 mL, and after allowing to react for 60 minutes at 30° C., 4 mL of aqueous phosphoric acid (pH 2.1) was added to stop the reaction. The alanine produced was quantified by high-performance liquid chromatography, and the amount of enzyme that produces 1 μM of L-alanine in 1 minute was defined as 1 unit.

[6] = tested on: peptide-forming enzyme purified from Corynebacterium glutamicum strain ATCC 13286; assay: Dipeptide production by enzyme purified from Corynebacterium glutamicum; assay type: biochemical; details: 100 mM L-alanine methyl ester hydrochloride with 200 mM test L-amino acid, 2 units enzyme, 10 mM EDTA, pH 9.0, 4 hours, 30° C.
Method: This purified enzyme was then added to borate buffer (pH 9.0) containing EDTA, L-alanine methyl ester hydrochloride and L-glutamine (or L-asparagine), mixed to the total volume of 1 mL (for the final concentrations, the amount of enzyme added was 2 units as alanine amide decomposition activity, EDTA was at 10 mM, L-alanine methyl ester hydrochloride was at 100 mM and L-glutamine (or L-asparagine) was at 200 mM borate buffer at 100 mM), and allowed to react for 4 hours at 30° C.

[7] = tested on: Pseudomonas putida strain FERM BP-8101; assay: Dipeptide production from test L-alanine esters / L-amino acids by cell suspension; assay type: cell-based; details: 20 mM EDTA, pH 9.0, 1 hour, 30° C.; for L-alanyl dipeptide produced: L-alanine methyl ester hydrochloride 200 mM with test L-amino acid 400 mM; for L-alanyl-L-glutamine produced: test L-alanine ester hydrochloride 200 mM with L-glutamine 400 mM
Method: Note that in the examples, quantitative determination of L-alanine, L-alanyl-L-glutamine or L-alanyl-L-asparagine was carried out by a method using high performance liquid chromatography (column: Inertsil ODS-2 (GL Science), eluate: aqueous phosphate solution (pH 2.2, 5.0 mM sodium 1-octane sulfonate/methanol=100/15), flow rate: 1.0 mL/min, detection: 210 nm).

[8] = tested on: Pseudomonas putida strain FERM BP-8101; details: substrate solution with 20 mM EDTA, 200 mM L-alanine ethyl ester hydrochloride, 400 mM L-glutamine, pH 9.0, 1 hour, 30° C.; 4.9 mM with no EDTA
From the text: However, the present invention is not limited to these examples.

Chain of proline iminopeptidase of Bacillus coagulans strain EK01 (P46541 whole entry): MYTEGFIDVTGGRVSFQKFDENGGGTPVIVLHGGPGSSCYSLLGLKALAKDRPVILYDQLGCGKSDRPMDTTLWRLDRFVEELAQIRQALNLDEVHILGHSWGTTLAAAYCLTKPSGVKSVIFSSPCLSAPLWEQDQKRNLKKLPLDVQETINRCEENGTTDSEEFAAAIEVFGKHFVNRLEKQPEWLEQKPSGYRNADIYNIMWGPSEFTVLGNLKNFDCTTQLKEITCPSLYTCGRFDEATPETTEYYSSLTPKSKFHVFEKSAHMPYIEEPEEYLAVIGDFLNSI

Molecule: N[C@@H](Cc1c[nH]c2ccccc12)C(=O)O [L-tryptophan]
- quantity of L-alanyl dipeptide produced from L-alanine methyl ester and test amino acid [1]: 15.31 mM

Molecule: NCC(=O)O [glycine]
- quantity of L-alanyl dipeptide produced from L-alanine methyl ester and test amino acid [1]: 5.66 mM

Molecule: N[C@@H](Cc1ccc(O)cc1)C(=O)O [L-tyrosine]
- quantity of L-alanyl dipeptide produced from L-alanine methyl ester and test amino acid [1]: 0.96 mM

Molecule: NC(=O)CI [IAA, iodoacetoamide]
- effect on enzyme activity [2]: decreased to certain extents
- effect on enzyme activity [3]: decreased to certain extents
- effect on enzyme activity [4]: decreased to certain extents

Molecule: peptide-forming enzyme purified from Corynebacterium glutamicum strain ATCC 13286: native enzyme purified to uniformity; amino acid sequence SEQ ID NO: 5
- specific activity (L-alanine amide decomposition) [5]: 9.841 U/mg

Molecule: COC(=O)[C@@H](N)Cc1ccc(O)cc1 [L-tyrosine methyl ester]
- quantity of dipeptide produced from test amino acid methyl ester and L-glutamine [1]: 1.24 mM

Molecule: COC(=O)[C@@H](N)CC(N)=O [L-asparagine methyl ester]
- production of peptide of the corresponding amino acid and L-glutamine (not quantified) [1]: confirmed to be produced

Molecule: C[C@@H](O)[C@H](N)C(=O)O [L-threonine]
- quantity of L-alanyl dipeptide produced from L-alanine methyl ester and test amino acid [1]: 24.23 mM

Molecule: COC(=O)[C@@H](N)[C@@H](C)O [L-threonine methyl ester]
- quantity of dipeptide produced from test amino acid methyl ester and L-glutamine [1]: 3.85 mM

Molecule: N[C@@H](Cc1c[nH]cn1)C(=O)O [L-histidine]
- quantity of L-alanyl dipeptide produced from L-alanine methyl ester and test amino acid [1]: 23.16 mM

Molecule: COC(=O)[C@@H](N)CC(C)C [L-leucine methyl ester]
- production of peptide of the corresponding amino acid and L-glutamine (not quantified) [1]: confirmed to be produced

Molecule: NC(=O)CC[C@H](N)C(=O)O [L-glutamine]
- amount of L-alanyl dipeptide produced [6]: 50.2 mM
- L-alanyl dipeptide produced [7]: 12.7 mM

Molecule: COC(=O)[C@@H](N)CC(=O)O [L-aspartic acid-α-methyl ester]
- quantity of dipeptide produced from test amino acid methyl ester and L-glutamine [1]: 8.22 mM

Molecule: O=C(O)[C@@H]1CCCN1 [L-proline]
- quantity of L-alanyl dipeptide produced from L-alanine methyl ester and test amino acid [1]: 1.02 mM

Molecule: COC(=O)[C@@H](N)CCCCN [L-lysine methyl ester]
- production of peptide of the corresponding amino acid and L-glutamine (not quantified) [1]: confirmed to be produced

Molecule: COC(=O)C[C@H](N)C(=O)O [L-aspartic acid-β-methyl ester]
- production of peptide of the corresponding amino acid and L-glutamine (not quantified) [1]: confirmed to be produced

Molecule: COC(=O)[C@@H](N)CCSC [L-methionine methyl ester]
- quantity of dipeptide produced from test amino acid methyl ester and L-glutamine [1]: 4.31 mM

Molecule: COC(=O)CC[C@H](N)C(=O)O [L-glutamic acid-γ-methyl ester]
- production of peptide of the corresponding amino acid and L-glutamine (not quantified) [1]: confirmed to be produced

Molecule: O=C(O)CN(CCN(CC(=O)O)CC(=O)O)CC(=O)O [EDTA, ethylenediaminetetraacetic acid]
- L-alanyl-L-glutamine produced [8]: 10.1 mM

Molecule: NCCCC[C@H](N)C(=O)O [L-lysine]
- quantity of L-alanyl dipeptide produced from L-alanine methyl ester and test amino acid [1]: 7.91 mM

Molecule: CC[C@H](C)[C@H](N)C(=O)N[C@@H](CCC(N)=O)C(=O)O [L-isoleucyl-L-glutamine] (H-Ile-Gln-OH)
- quantity of dipeptide produced from test amino acid methyl ester and L-glutamine [1]: 0.59 mM

Molecule: COC(=O)[C@H](C)N.Cl [L-alanine methyl ester hydrochloride]
- L-alanyl-L-glutamine produced [7]: 14.9 mM

Molecule: CSCC[C@H](N)C(=O)O [L-methionine]
- quantity of L-alanyl dipeptide produced from L-alanine methyl ester and test amino acid [1]: 48.80 mM

Molecule: COC(=O)[C@@H](N)CCCNC(=N)N [L-arginine methyl ester]
- quantity of dipeptide produced from test amino acid methyl ester and L-glutamine [1]: 6.52 mM

Molecule: COC(=O)CN [glycine methyl ester]
- quantity of dipeptide produced from test amino acid methyl ester and L-glutamine [1]: 52.19 mM

Molecule: COC(=O)C[C@H](N)C(=O)OC [L-aspartic acid-α,β-dimethyl ester]
- production of peptide of the corresponding amino acid and L-glutamine (not quantified) [1]: confirmed to be produced

Molecule: C[C@H](N)C(=O)O [L-alanine]
- quantity of L-alanyl dipeptide produced from L-alanine methyl ester and test amino acid [1]: 10.63 mM

Molecule: O=S(=O)(F)Cc1ccccc1 [PMSF, phenyl methyl sulfonyl fluoride]
- effect on enzyme activity [2]: did not have an effect
- effect on enzyme activity [3]: did not have an effect
- effect on enzyme activity [4]: did not have an effect

Molecule: N[C@@H](CO)C(=O)O [L-serine]
- quantity of L-alanyl dipeptide produced from L-alanine methyl ester and test amino acid [1]: 26.14 mM

Molecule: COC(=O)[C@@H](N)C(C)C [L-valine methyl ester]
- quantity of dipeptide produced from test amino acid methyl ester and L-glutamine [1]: 5.94 mM

Molecule: COC(=O)[C@@H](N)CO [L-serine methyl ester]
- quantity of dipeptide produced from test amino acid methyl ester and L-glutamine [1]: 40.44 mM

Molecule: N=C(N)NCCC[C@H](N)C(=O)O [L-arginine]
- quantity of L-alanyl dipeptide produced from L-alanine methyl ester and test amino acid [1]: 24.87 mM

Molecule: COC(=O)[C@@H](N)CCC(N)=O [L-glutamine methyl ester]
- quantity of dipeptide produced from test amino acid methyl ester and L-glutamine [1]: 0.23 mM

Molecule: C[C@H](N)C(=O)OC(C)(C)C.Cl [L-alanine-tert-butyl ester hydrochloride]
- L-alanyl-L-glutamine produced [7]: 0.5 mM

Molecule: NC(=O)C[C@H](N)C(=O)O [L-asparagine]
- quantity of L-alanyl dipeptide produced from L-alanine methyl ester and test amino acid [1]: 22.34 mM
- amount of L-alanyl dipeptide produced [6]: 49.8 mM
- L-alanyl dipeptide produced [7]: 4.8 mM

Molecule: N[C@@H](CCC(=O)O)C(=O)O [L-glutamate]
- quantity of L-alanyl dipeptide produced from L-alanine methyl ester and test amino acid [1]: 1.11 mM

Molecule: CC(C)C[C@H](N)C(=O)O [L-leucine]
- quantity of L-alanyl dipeptide produced from L-alanine methyl ester and test amino acid [1]: 13.73 mM

Molecule: CCN1C(=O)C=CC1=O [NEM, N-ethylmaleimide]
- effect on enzyme activity [2]: nearly completely inhibited
- effect on enzyme activity [3]: nearly completely inhibited
- effect on enzyme activity [4]: nearly completely inhibited

Molecule: N[C@@H](Cc1ccccc1)C(=O)O [L-phenylalanine]
- quantity of L-alanyl dipeptide produced from L-alanine methyl ester and test amino acid [1]: 16.13 mM

Molecule: CCOC(=O)[C@H](C)N.Cl [L-alanine ethyl ester hydrochloride]
- L-alanyl-L-glutamine produced [7]: 11.4 mM
